Laboratory results reported in PubChem BioAssay (NCI).
Where “and” joins values, the source holds several entries; their conditions need not be identical. Equal entries are not always repeated.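 96-well plates; 48 h exposure; 5 concentrations. Endpoints by linear interpolation between flanking doses. Not reached: highest tested concentration assigned. GI50 marks 50% less growth. TGI: concentration producing complete growth inhibition.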

Key:
Experiment in all cases: growth of human tumour cells (NCI), 48 h
[1] = tested on: ACHN renal
[2] = tested on: K-562 leukemia
[3] = tested on: LXFL 529 NSCLC
[4] = tested on: NCI-H522 lung
[5] = tested on: RXF 393 renal
[6] = tested on: SK-MEL-5 melanoma
[7] = tested on: SNB-78 CNS
[8] = tested on: UACC-62 melanoma
[9] = tested on: UO-31 renal
[10] = tested on: MDA-MB-231 breast

| Compound | TGI [1] [µM] | TGI [2] | TGI [3] [µM] | TGI [4] | TGI [5] | TGI [6] | TGI [7] | TGI [8] | TGI [9] | TGI [10] [µM] | GI50 [1] [µM] | GI50 [2] | GI50 [3] [µM] | GI50 [4] | GI50 [5] [µM] | GI50 [6] [µM] | GI50 [7] | GI50 [8] [µM] | GI50 [9] |
| --- | --- | --- | --- | --- | --- | --- | --- | --- | --- | --- | --- | --- | --- | --- | --- | --- | --- | --- | --- |
| O=C1[C@@H]2C(c3ccccc3[N+](=O)[O-])=[N+](c3ccccc3)O[C@@H]2C(=O)N1c1ccc(Cc2ccc(N3C(=O)[C@H]4C(c5ccccc5[N+](=O)[O-])=[N+](c5ccccc5)O[C@H]4C3=O)cc2)cc1 | > 100 | > 100 µM | > 100 | > 100 µM | > 100 µM | > 100 µM | > 100 µM | > 100 µM | > 100 µM | – | – | – | – | – | – | – | – | – | – |
| O=C1C=CC(=O)c2c1ccc1c3ccccc3n(-c3ccccc3)c21 | 11.1 | 5.08 µM | 10.9 | 3.15 µM | 5.34 µM | 31.2 µM | 53.8 µM | 26.2 µM | 25.5 µM | 15.9 | – | – | – | – | – | – | – | – | – |
| CCOC(=O)NC/C=C/COC1CCCCO1 (stereo unspecified) | > 100 | > 100 µM | > 100 | > 100 µM | > 100 µM | > 100 µM | > 100 µM | > 100 µM | > 100 µM | – | – | – | – | – | – | – | – | – | – |
| CCOC(=O)C(N=C(c1ccccc1)c1ccccc1)N(C(=O)OC(C)(C)C)C(=O)OC(C)(C)C (stereo unspecified) | > 100 | > 100 µM | > 100 | > 100 µM | > 100 µM | > 100 µM | > 100 µM | > 100 µM | > 100 µM | – | – | – | – | – | – | – | – | – | – |
| O=C(NCc1cccnc1)C1COc2cc(-c3cc(=O)c4ccccc4o3)ccc2O1 (stereo unspecified) | > 72.9 | > 100 µM | > 100 | > 100 µM | > 61.2 µM | > 100 µM | > 100 µM | > 100 µM | > 100 µM | – | – | – | – | – | – | – | – | – | – |
| CCCCC(C(=O)CCC(=O)Nc1ccc(Cl)c(Cl)c1)C(=O)C(C)C (stereo unspecified) | > 100 | > 100 µM | > 100 | > 100 µM | > 100 µM | > 100 µM | > 100 µM | > 100 µM | > 100 µM | – | – | – | – | – | – | – | – | – | – |
| CC[C@@]1(O)C(=O)OCc2c1cc1n(c2=O)Cc2cc3cccc([N+](=O)[O-])c3nc2-1 | 3.01 | > 100 µM | > 100 | 23.3 µM | 7.18 µM | 2.74 µM | > 100 µM | 1.28 µM | 6.91 µM | – | 0.322 | 3.55 µM | 14.2 | 1.04 µM | 1.83 | 1.18 | 34.3 µM | 0.299 | 1.17 µM |
| O=C(NC(=O)c1ccccc1[N+](=O)[O-])Nc1ccc(Oc2ncc(Cl)cn2)c([N+](=O)[O-])c1 | > 100 | > 100 µM | > 100 | 1.68 µM | – | > 14.1 µM | > 100 µM | > 100 µM | > 95.7 µM | 63.1 | – | – | – | – | – | – | – | – | – |
| O=[N+]([O-])c1ccc(C2=Nn3c(nnc3-c3ccc(Cl)cc3)SC2)o1 | 27.3 | 4.89 µM | 14.1 | 2 µM | 21.6 µM | 25.3 µM | 38.6 µM | 25.9 µM | 15.4 µM | 10.1 | – | – | – | – | – | – | – | – | – |
| O=C(O)C(C(=O)O)P(=S)(S)c1ccccc1 (stereo unspecified) | > 100 | > 100 µM | > 100 | > 100 µM | > 100 µM | > 31.6 µM | > 100 µM | > 100 µM | > 100 µM | > 100 | – | – | – | – | – | – | – | – | – |
| O=C1NC2C(=CC(O)C(O)C2O)c2cc3c(cc21)OCO3 (stereo unspecified) | 1.57 | 3.64 µM and 7.68 µM | 3.66 | 0.574 µM and 1.41 µM | 0.805 µM and 1.43 µM and 2.16 µM | 0.936 µM and 5.01 µM and 1.23 µM | 4.94 µM and 11.2 µM | 2.56 µM and 1.65 µM | 2.29 µM and 2.41 µM | 2.39 | 0.334 | 0.294 µM and 0.149 µM | 0.313 | 0.352 µM and 0.105 µM | 0.589 | 0.282 | 0.456 µM and 0.426 µM | 0.266 | 0.279 µM and 0.264 µM |
